Measurements reported in patent publication US10188770B2, “Dental implant having enhanced early stability and method for manufacturing same” (OSSTEMIMPLANT CO., LTD., priority 2014, dated 2019).

Columns and labels:
implant-bone interface = assay: Removal torque of coated implants just after coating and after 3-year storage; assay type: in vivo; design: Removal torque: unit not given here; details: for removal torque compared with other bisphosphonates and bare implant (in words): summary of Table 1, bisphosphonate-coated implants; for removal torque compared with other dental implants (in words): summary of Table 2, implants coated with both rhBMP-2 and bisphosphonate
Protocol: In order to confirm the long-time storage stabilities of implant, osseointegration at implant-bone interface were measured via removal torque.
Each dental implant was coated with various bisphosphonates as described example 1 and its removal torque was measured just after coating step and 3-year self-storage, respectively.
Similarly, osseointegration at implant-bone interface were measured via removal torque for dental implants wherein the osteoclast activity inhibitor coating film further comprises a bone growth factor (BMP-2) as shown in Table 2.

[1] = test system: mandible and tibia of micropigs; details: hydrophilized implants coated with alendronate vs uncoated implants, 0 to 6 weeks, FIGS. 3 and 4
Protocol: (§1) In order to impart hydrophilicity to the implants which were subjected to the above processes, the titanium surface was hydrophilized by plasma treatment (RFGD, O2, etc.) for 1 minutes and light radiation (ultraviolet rays, ultraviolet-ozone, etc.) for 5 minutes. Then, a 10 ml solution of 40 μg Alendronate, 40 μg Zolendronate, 1 μg BMP-2, and 40 μg Alendronate+1 μg BMP-2 was uniformly applied to the surface, and the prepared implants, in which the solution was not dried, were used in the following Examples 2, 3 and 4.

tibia of micropigs = details: implants coated with rhBMP-2 and alendronate vs implants coated only with rhBMP-2, after 16 days, FIG. 6
Protocol: as §1

[2] = storage period 0 year, implants coated with 10 ml solution of 40 μg bisphosphonate
[3] = storage period 0 year, implants coated with 10 ml solution of 40 μg bisphosphonate and 1 μg rhBMP-2
[4] = storage period 3 year, implants coated with 10 ml solution of 40 μg bisphosphonate
[5] = storage period 3 year, implants coated with 10 ml solution of 40 μg bisphosphonate and 1 μg rhBMP-2

| SMILES | Removal torque (implant-bone interface; [2]) | Removal torque (implant-bone interface; [3]) | Removal torque (implant-bone interface; [4]) | Removal torque (implant-bone interface; [5]) | removal torque compared with other bisphosphonates and bare implant (in words) (implant-bone interface) | removal torque compared with other dental implants (in words) (implant-bone interface) | decrease in ISQ values compared to the negative control group [1] | increase of removal torque compared to the negative control group (tibia of micropigs) |
| --- | --- | --- | --- | --- | --- | --- | --- | --- |
| O=P(O)(O)C(O)(Cc1cccnc1)P(=O)(O)O [Resendronate] | 103.5 ± 9.3 | 128.1 ± 11.6 | 83.2 ± 9.3 |  |  |  |  |  |
| O=P(O)(O)C(O)(Cn1ccnc1)P(=O)(O)O [Zolendronate] | 104.4 ± 11.1 | 134.4 ± 11.9 | 103.8 ± 8.9 | 132.5 ± 10.7 | higher removal torque | higher removal torque value |  |  |
| NCCCC(O)(P(=O)(O)O)P(=O)(O)O [Alendronate] | 100.2 ± 8.4 | 130.1 ± 9.7 | 99.4 ± 11.8 | 129.8 ± 13.1 | higher removal torque | higher removal torque value | little decrease in ISQ values or the degree of the decrease was very lower | about 23% |
| NCCC(O)(P(=O)(O)O)P(=O)(O)O [Pamindronate] | 99.6 ± 7.9 | 127.5 ± 12.2 | 84.1 ± 11.4 | 109.7 ± 12.2 |  |  |  |  |
| CCCCCN(C)CCC(O)(P(=O)(O)O)P(=O)(O)O [Ibandronate] | 98.4 ± 12.1 | 128.8 ± 13.4 | 85.4 ± 12.5 | 110.8 ± 13.4 |  |  |  |  |
